{"source": "patent US20050038022A1", "about": "“Method for treatment of cancer and compositions for use therein” (Unisearch Limited, priority 2001, published 2005)", "key": {"[1]": {"conditions": "sulphoxide metabolite after oral albendazole, man; cited from earlier work"}, "[2]": {"experiment": "Solubility in solvent", "assay_type": "physicochemical", "text": "(§1) In order to be able to test ABS, a proper solvent had to be found. […] Therefore to allow direct comparison between the 2 compounds, all subsequent experiments were run using 0.5% DMSO for both ABS and albendazole. In the cell lines examined, albendazole produced very similar results to what we had previously reported for the drug in liver cancer cells."}, "[3]": {"system": "liver, colorectal, prostate and leukeamic cell lines", "experiment": "Albendazole/ABS side by side in various cell lines (general)", "assay_type": "cell-based", "procedure": "as §1\n(§2) Both albendazole and ABS were tested side by side against various cell lines as follows: • Liver—HepGZ Hep3B, SKHEP-1 • Colorectal—170, LOVO, HT-29 • Prostate—PC3, LNCap, Du145 • Leukeamic—HL60\nThe fist 9 cell lines were used to compare effectiveness and potency while, the last one was used to assess toxicity on bone marrow (as a rough guide).\n(§3) Cells were treated with various concentrations of each compound for a period of 5 days."}, "[4]": {"system": "C-170, LOVO and HT-29", "experiment": "Albendazole/ABS proliferation test, colorectal cell lines", "assay_type": "cell-based", "conditions": "C-170, LOVO and HT-29, 5 days, 0.5% DMSO", "procedure": "as §1, §2, §3"}, "[5]": {"system": "PC3, LNCap and Du 145", "experiment": "Albendazole/ABS proliferation test, prostate cancer cells", "assay_type": "cell-based, human", "conditions": "PC3, LNCap and Du 145; ABS compared with albendazole", "procedure": "as §1, §2, §3"}, "[6]": {"system": "HepG2, SKHEP-1 and Hep 3B", "experiment": "Albendazole/ABS proliferation test, liver cancer cells", "assay_type": "cell-based, human", "conditions": "5 days, 0.5% DMSO", "procedure": "as §1, §2, §3"}}, "data": [{"compound": "CCC[S+]([O-])c1ccc2[nH]c(NC(=O)OC)nc2c1", "note": "(stereo not shown) [ABS, albendazole sulphoxide]", "values": [{"measurement": "peak plasma concentrations", "setting": "[1]", "result": "200 to 300", "unit": "ng/mL"}, {"measurement": "plasma half life", "setting": "[1]", "result": "8 to 9", "unit": "h"}, {"measurement": "solubility in ethanol", "setting": "[2]", "result": "not soluble in ethanol"}, {"measurement": "antiproliferative activity at 0.25 micromoles/L", "setting": "[3]; 0.25 micromoles/L, 5 days", "result": "dramatically increasing"}, {"measurement": "effectiveness compared with parent drug", "setting": "[3]; 10 different cell lines, earlier results, latest results cast doubt", "result": "as effective as the parent drug"}, {"measurement": "inhibition at 1 µM", "setting": "[3]; 120 h, 1 micromoles/L, 5 days", "result": "~100", "unit": "%"}, {"measurement": "concentration at which antiproliferative activity becomes evident", "setting": "[3]; 5 days, 0.5% DMSO, in general", "result": 0.01, "unit": "µmol/L"}, {"measurement": "activity against colorectal cell lines", "setting": "[4]", "result": "same sort of activity"}, {"measurement": "potency in inhibiting proliferation, metabolite versus drug", "setting": "[5]", "result": "almost equipotent"}, {"measurement": "proliferation of human liver cancer cells", "setting": "[6]", "result": "inhibit proliferation"}]}]}
